Laboratory results reported in patent US20240228543A1, “CYCLIC PEPTIDE INHIBITORS OF USP22” (THE JOHNS HOPKINS UNIVERSITY, priority 2021, published 2024).
Positions of bridges follow the written chain, without caps; N, C: chain ends. Non-standard residues stand in square brackets, D forms with d. Residues, ends and D or L forms follow the SMILES beside them.

Key:
[1] = biological target: T1, human DUB module (hDUBm; USP22, ATXN7, ATXN7L3, ENY2) (Homo sapiens, UniProt Q9UPT9); experiment: Ub-AMC deubiquitination assay, human DUB module; type: biochemical; conditions: 200 nM DUB, 1 μM Ub-AMC; read-out: Ki (apparent, Morrison approximation), Ub-AMC cleavage
T1 construct: 6xHis (TEV-cleavable) (N, cleaved yes); made in house; host or cells: High Five insect cells (baculovirus, Bac2Bac; virus amplified in Sf9)
Procedure: FIG. 2A is a graph of initial rates of Ub-AMC cleavage by hDUB module as a function of substrate concentration. […] FIGS. 2B-2G are graphs of each cyclic peptide, as indicated, tested for its ability to inhibit Ub-AMC cleavage in the presence of increasing amounts of the peptide into a reaction with a fixed amount of DUB (200 nM) and Ub-AMC (1 μM). Ki values were determined for each curve using the Morrison Ki approximation.
Ub-AMC deubiquitination assay A working stock mixture of either yDUBm or hDUBm was prepared in the presence of either DMSO (mock) or a dilution series of the cyclic peptide. […] Each enzyme:peptide mixture was incubated for 30 min at 30° C. in the case of yDUBm, and 37° C. in the case of hDUBm, with each enzyme complex at 1.033× the desired concentration (207 nM). The enzyme:peptide mixture ([…]) was added to 1 μL of 30 μM U b-AMC (7-amino-4-methylcoumarin) (Boston Biochem), for a final concentration of 200 nM DUBm, the indicated cyclic peptide concentration, and 1 μM Ub-AMC. DUB activity was measured by observing the increase in AMC fluorescence in a plate reader, and the initial rate of fluorescence increase was calculated and plotted as a function of inhibitor concentration (FIGS. 2B-2I). The Ki values were determined using the Morrison approximation of enzyme inhibition equilibria within Prism (Graphpad).
The cyclic peptides that constituted potential inhibitors were chemically synthesized by solid phase peptide synthesis and tested for their effectiveness and specificity as inhibitors in vitro. Since the enzyme kinetics of the human DUB module had not previously been characterized, hDUBm activity was assayed using the fluorogenic substrate, ubiquitin-amino methyl coumarin (Ub-AMC) (FIG. 2A).

[2] = biological target: human DUB module (hDUBm) on H2B-K120 ubiquitinated nucleosomes (Homo sapiens, UniProt Q9UPT9); experiment: Deubiquitination of nucleosomal H2B by hDUBm; conditions: 1 μM cyclic peptide, 200 nM hDUBm, 1 uM H2B-Ub nucleosome
Procedure: Deubiquitination of nucleosomal H2B Recombinant human mononucleosomes containing histone H2B ubiquitinated at K120 (H2B-Ub) were obtained from Epicypher (dNuc, 16-0370) and diluted to 2 μM with reaction buffer. Both hDUBm and inhibitor peptides were diluted from concentrated stocks with reaction buffer (10 mM HEPES pH 7.5, 150 mM NaCl, 1 μM ZnCl2, and 0.2 mM TCEP) to a final concentration of 400 nM DUB module and 2 μM cyclic peptide and incubated at 37° C. for 20 minutes. Reactions were initiated by combining equal volumes of the enzyme-peptide mixture and nucleosomes, resulting in final concentrations of 200 nM hDUBm, 1 μM cyclic peptide, and 1 uM H2B-Ub nucleosome. Time points of the reaction were quenched with SDS sample buffer, separated by SDS-PAGE (Invitrogen, Bolt gels), and stained with Sypro Ruby (Life Technologies). Gels were imaged and quantitated (BioRad product info), using the H3 band as an independent load control to normalize the band intensities of H2B-Ub. Experiments were done in triplicate and analyzed using Prism (GraphPad).
To test the effectiveness of the inhibitors on a native-like substrate, the ability of each cyclic peptide to inhibit DUB activity on nucleosomes ubiquitinated at H2B-K120 was assayed.

[3] = Solubility in aqueous conditions; type: physicochemical
[4] = test system: H2B-Ub levels in HEK293T cells; experiment: Cell-based assay of H2B-Ub levels (histone extraction, western blot); parameters: species or system human; conditions: 5 μM, two hours, normalized to H3
Procedure: Bottom: anti-histone H3 loading control.
Cell-based Assay HEK293T cells were purchased from ATCC (CRL-3216) and cultures were expanded for at least 10 passages in Dulbecco's Modified Eagle Medium (DMEM) supplemented with 10% fetal bovine serum (FBS) in T75 flasks incubated in a 37° C. and 5% CO2 cabinet before any manipulation. Once cells were mature, HEK293T cells were grown to 80% confluence in 6-well plates, the media were aspirated, and media with reduced FBS (DMEM, 2% FBS) and 5 μM cyclic peptide were introduced. After two hours, the media were aspirated, and the cells were collected by scraping (˜1×10^6 cells per well). The cells were then washed in 1× PBS twice followed by histone extraction (Active Motif). The extracted histones were then western blotted for H2B-Ub levels (Cell Signaling, 5546S), using H3 western blotting (Abcam, ab1791) to normalize loading.
Each cyclic peptide was introduced as a supplement to the growth medium of HEK293T cells, the histones were extracted from each culture after two hours of exposure, and the levels of H2B-Ub was quantified by immunoblot. Levels of H2B-Ub were compared to control cells that were treated with DMSO, the yD1 cyclic peptide that has no effect on USP22 activity, or the broad-spectrum cell permeable DUB inhibitor. PR-619. The relative abundance of histone H3 was used to control for differences in nuclear extraction.

T1 sequence (Q9UPT9 whole entry): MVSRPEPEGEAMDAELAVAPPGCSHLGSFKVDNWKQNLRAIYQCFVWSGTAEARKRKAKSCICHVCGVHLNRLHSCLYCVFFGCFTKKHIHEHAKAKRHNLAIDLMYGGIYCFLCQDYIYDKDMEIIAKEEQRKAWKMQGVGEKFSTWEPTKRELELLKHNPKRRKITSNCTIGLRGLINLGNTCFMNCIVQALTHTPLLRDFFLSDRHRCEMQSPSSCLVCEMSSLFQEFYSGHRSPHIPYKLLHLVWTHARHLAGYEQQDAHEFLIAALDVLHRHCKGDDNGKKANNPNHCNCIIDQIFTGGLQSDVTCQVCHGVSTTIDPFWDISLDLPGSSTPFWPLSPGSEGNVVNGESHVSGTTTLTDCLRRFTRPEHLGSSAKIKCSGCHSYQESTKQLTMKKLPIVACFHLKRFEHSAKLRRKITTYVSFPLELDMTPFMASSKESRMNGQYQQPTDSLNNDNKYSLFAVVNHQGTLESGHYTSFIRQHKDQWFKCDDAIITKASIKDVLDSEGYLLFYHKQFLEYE
T1 sequence (O15265 3-151 partner limits assumed): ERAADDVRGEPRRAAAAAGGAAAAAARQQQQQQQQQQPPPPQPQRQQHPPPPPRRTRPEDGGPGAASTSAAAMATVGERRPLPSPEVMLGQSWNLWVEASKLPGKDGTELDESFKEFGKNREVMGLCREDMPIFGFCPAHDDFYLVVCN
T1 sequence (Q14CW9 whole entry partner): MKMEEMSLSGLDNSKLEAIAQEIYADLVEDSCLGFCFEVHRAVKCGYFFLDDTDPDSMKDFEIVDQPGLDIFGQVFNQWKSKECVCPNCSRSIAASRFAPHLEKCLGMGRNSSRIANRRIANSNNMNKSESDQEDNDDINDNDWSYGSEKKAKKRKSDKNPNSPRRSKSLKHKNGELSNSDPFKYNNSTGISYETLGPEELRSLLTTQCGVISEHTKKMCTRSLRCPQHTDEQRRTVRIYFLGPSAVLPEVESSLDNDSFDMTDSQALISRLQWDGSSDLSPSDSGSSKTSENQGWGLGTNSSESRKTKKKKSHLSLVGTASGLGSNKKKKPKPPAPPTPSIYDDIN
T1 sequence (Q9NPA8 whole entry partner): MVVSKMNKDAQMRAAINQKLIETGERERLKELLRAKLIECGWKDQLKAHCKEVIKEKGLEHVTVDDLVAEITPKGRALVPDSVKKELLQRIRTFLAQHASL
Chain of human DUB module (hDUBm) on H2B-K120 ubiquitinated nucleosomes (Q9UPT9 whole entry): as the sequence (Q9UPT9 whole entry) above
Chain of human DUB module (hDUBm) on H2B-K120 ubiquitinated nucleosomes (O15265 3-151 partner limits assumed): as the sequence (O15265 3-151 partner limits assumed) above
Chain of human DUB module (hDUBm) on H2B-K120 ubiquitinated nucleosomes (Q14CW9 whole entry partner): as the sequence (Q14CW9 whole entry partner) above
Chain of human DUB module (hDUBm) on H2B-K120 ubiquitinated nucleosomes (Q9NPA8 whole entry partner): as the sequence (Q9NPA8 whole entry partner) above

Row | Structure (SMILES) | Ki [1] [nM] | other results
1 | C[C@@H]1NC(=O)CNC(=O)[C@H](CCCNC(=N)N)NC(=O)[C@H](Cc2ccc(O)cc2)NC(=O)[C@H](CO)NC(=O)[C@H](Cc2c[nH]c3ccccc23)NC(=O)[C@H](CCC(N)=O)NC(=O)[C@H](Cc2c[nH]cn2)NC(=O)[C@@H](Cc2ccc(O)cc2)NC(=O)CSC[C@@H](C(N)=O)NC(=O)[C@H](CO)NC(=O)[C@H](CCCNC(=N)N)NC(=O)[C@H](Cc2ccc(O)cc2)NC(=O)[C@H]([C@@H](C)O)NC1=O [hD2] ({CH2CO}-[dY]HQWSYRGATYRSC-NH2; thioether N-14) | < 100 | 
2 | CC(C)C[C@@H]1NC(=O)[C@H](Cc2c[nH]c3ccccc23)NC(=O)[C@H](CO)NC(=O)[C@H](CCCNC(=N)N)NC(=O)[C@H](CC(C)C)NC(=O)[C@H](CCCNC(=N)N)NC(=O)[C@H](Cc2ccc(O)cc2)NC(=O)[C@H](Cc2ccc(O)cc2)NC(=O)[C@H](CO)NC(=O)[C@@H]2CCCN2C(=O)CNC(=O)[C@H](CC(N)=O)NC(=O)[C@@H](Cc2ccc(O)cc2)NC(=O)CSC[C@@H](C(N)=O)NC(=O)[C@H](CO)NC(=O)[C@H](CO)NC1=O [hD3] ({CH2CO}-[dY]NGPSYYRLRSWLSSC-NH2; thioether N-16) |  | inhibition of nucleosomal H2B-Ub cleavage by hDUBm [2]: inhibit the enzymatic activity
3 | CC(C)C[C@@H]1NC(=O)[C@H](Cc2ccc(O)cc2)NC(=O)CSC[C@@H](C(N)=O)NC(=O)[C@H](Cc2ccc(O)cc2)NC(=O)[C@H](CC(C)C)NC(=O)[C@H](CCCNC(=N)N)NC(=O)[C@H](CC(C)C)NC(=O)[C@H](CO)NC(=O)[C@H](Cc2c[nH]c3ccccc23)NC(=O)CNC(=O)[C@H](Cc2ccccc2)NC(=O)[C@H](CO)NC(=O)[C@H](Cc2ccccc2)NC(=O)[C@H](C)NC(=O)[C@H](CO)NC(=O)[C@H](CC(=O)O)NC(=O)[C@H](Cc2c[nH]cn2)NC1=O [yL1] ({CH2CO}-YLHDSAFSFGWSLRLYC-NH2; thioether N-17) |  | solubility in aqueous conditions [3]: insoluble in aqueous conditions
4 | N#CSc1cc(SC#N)c(N)nc1N [PR-619] |  | change of H2B-Ub levels [4]: minor increase

The next lines start with results.

Row | Ki [1] [nM] | Structure (SMILES) | other results
5 | < 100 | CC[C@H](C)[C@@H]1NC(=O)[C@H](Cc2c[nH]cn2)NC(=O)[C@H](CC(=O)O)NC(=O)[C@H](CO)NC(=O)[C@H](Cc2c[nH]c3ccccc23)NC(=O)[C@H](Cc2ccccc2)NC(=O)[C@H](CCCNC(=N)N)NC(=O)[C@H](Cc2ccccc2)NC(=O)[C@H](CC(N)=O)NC(=O)[C@H](CC(C)C)NC(=O)[C@H]([C@@H](C)O)NC(=O)[C@H](Cc2ccc(O)cc2)NC(=O)CSC[C@@H](C(N)=O)NC(=O)[C@H](CO)NC(=O)[C@H](Cc2ccc(O)cc2)NC(=O)[C@H](Cc2c[nH]c3ccccc23)NC(=O)[C@H](CO)NC1=O [hL1] ({CH2CO}-YTLNFRFWSDHISWYSC-NH2; thioether N-17) | 
6 | 804 | CC[C@H](C)[C@@H]1NC(=O)[C@H](Cc2c[nH]c3ccccc23)NC(=O)[C@@H](Cc2ccc(O)cc2)NC(=O)CSC[C@@H](C(N)=O)NC(=O)[C@H](Cc2ccccc2)NC(=O)[C@H](CO)NC(=O)[C@H](CCCCN)NC(=O)[C@H](CO)NC(=O)[C@H](CC(C)C)NC(=O)CNC(=O)[C@H](CCCNC(=N)N)NC(=O)[C@H](Cc2ccc(O)cc2)NC(=O)[C@H](CO)NC(=O)[C@H](Cc2c[nH]cn2)NC(=O)[C@H]([C@@H](C)O)NC1=O [hD4] ({CH2CO}-[dY]WITHSYRGLSKSFC-NH2; thioether N-15) | 
